Laboratory results from US20090325959A1 (priority 2008, published 2009).
Where two headings read alike, the source gives them in different places.

What was measured:
[1] = test system: NIH/3T3 cells; assay: NIH/3T3 cell morphology assay (actin cytoskeleton disruption); format: cell-based; conditions: score 0 (no effect) to 4 (complete disruption) of the actin cytoskeleton; 60 minutes
Protocol: NIH/3T3 cells were grown in DMEM-H containing glutamine and 10% Colorado Calf Serum. Cells were passaged regularly prior to reaching confluence. Eighteen to 24 hours prior to experimentation, the cells were plated onto Poly-L-Lysine-coated glass bottom 24-well plates. On the day of experimentation, the cell culture medium was removed and was replaced with the same medium containing from 10 nM to 25 μM of the test compound, and the cells were incubated for 60 minutes at 37° C. The culture medium was then removed and the cells were washed with warmed PBS and fixed for 10 minutes with warmed 4% paraformaldehyde. The cells were permeabilized with 0.5% Triton-X, stained with TRITC-conjugated phalloidin and imaged using a Nikon Eclipse E600 epifluorescent microscope to determine the degree of actin disruption. Results were expressed as a numerical score indicating the observed degree of disruption of the actin cytoskeleton at the test concentration, ranging from 0 (no effect) to 4 (complete disruption), and were the average of at least 2 determinations.

[2] = test system: human neutrophils; assay: Human neutrophil chemotaxis induced by fMLP (modified Boyden chamber); format: cell-based
From the text: This assay is an in vitro assay of neutrophil chemotaxis that can be used to evaluate the ability of Rho Kinase inhibitor compounds of Formula I or II to inhibit the migration of human neutrophils, an inflammatory cell that has been implicated in the pathophysiology of allergic conjunctivitis.
Peripheral blood from healthy human volunteers was collected and the neutrophils were isolated by Ficoll-paque density centrifugation followed by dextran sedimentation and hypotonic lysis of the red blood cells. Neutrophil chemotaxis was assessed using a modified Boyden Chamber (Neuroprobe, 96-well) with a 3 μm pore polycarbonate membrane. The ability of the tested compounds to block chemotaxis induced by a 1 μM fMLP challenge during a one hour incubation at 37° C. with 5% CO2 was assessed in a dose response manner.

[3] = biological target: T1, p70S6K human enzyme (Homo sapiens, UniProt P23443, T412E); assay: p70S6K inhibition assay (IMAP FP); format: biochemical;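 note: kinase reaction run at room temperature, phosphorylated substrate captured on IMAP beads and read as fluorescence polarization in mP, IC50 then converted to Ki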
T1 construct: purchased Upstate Chemicon 14-486
T1 sequence (P23443 1-421 T412E limits assumed): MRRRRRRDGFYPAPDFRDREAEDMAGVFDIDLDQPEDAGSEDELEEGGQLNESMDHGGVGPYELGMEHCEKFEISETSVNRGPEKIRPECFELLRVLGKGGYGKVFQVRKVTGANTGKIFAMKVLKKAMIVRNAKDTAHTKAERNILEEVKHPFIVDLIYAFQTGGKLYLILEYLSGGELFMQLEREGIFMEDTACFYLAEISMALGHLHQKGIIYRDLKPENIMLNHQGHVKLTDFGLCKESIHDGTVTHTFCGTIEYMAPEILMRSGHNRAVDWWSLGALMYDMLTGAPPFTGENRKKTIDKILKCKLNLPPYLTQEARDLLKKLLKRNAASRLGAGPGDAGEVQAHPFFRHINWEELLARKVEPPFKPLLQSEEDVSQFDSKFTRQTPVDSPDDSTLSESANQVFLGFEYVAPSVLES

[4] = biological target: T2, Akt3 human enzyme (Homo sapiens, UniProt Q9Y243); assay: Akt3 inhibition assay (IMAP FP); format: biochemical;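 note: kinase reaction run 60 min at room temperature after 30 µM ATP start, phosphorylated substrate captured on IMAP beads and read as fluorescence polarization (mP)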
T2 construct: purchased Upstate Chemicon 14-502
T2 sequence (Q9Y243 whole entry): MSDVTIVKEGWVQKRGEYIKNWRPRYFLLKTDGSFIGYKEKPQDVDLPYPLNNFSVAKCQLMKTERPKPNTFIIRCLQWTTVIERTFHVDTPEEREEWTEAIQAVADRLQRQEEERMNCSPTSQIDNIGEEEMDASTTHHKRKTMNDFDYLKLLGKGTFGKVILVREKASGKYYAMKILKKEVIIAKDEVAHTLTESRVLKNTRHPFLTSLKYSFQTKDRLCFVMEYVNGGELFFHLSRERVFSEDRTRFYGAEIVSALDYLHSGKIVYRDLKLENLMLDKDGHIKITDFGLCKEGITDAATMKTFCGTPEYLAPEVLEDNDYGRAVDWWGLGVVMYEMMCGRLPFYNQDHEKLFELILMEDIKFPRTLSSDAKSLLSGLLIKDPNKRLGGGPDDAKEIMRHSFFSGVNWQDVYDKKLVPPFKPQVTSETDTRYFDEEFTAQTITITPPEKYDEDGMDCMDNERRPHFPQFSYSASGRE

[5] = Compound plasma concentrations in unsensitized mice at 15 min post administration; format: in vivo; conditions: mouse, 15 μmol/kg; mean compound plasma concentration in mice at 15 minutes post oral administration; read-out: Mouse Oral PK
[6] = biological target: T3, ROCK2 (Homo sapiens, UniProt O75116); assay: Rho kinase inhibition assay (IMAP fluorescence polarization), ROCK2; format: biochemical;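 note: kinase reaction started with 10 µM ATP and run 60 min at room temperature, then phosphorylated substrate captured on IMAP beads for 30 min and fluorescence polarization read in mP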
T3 construct: purchased Upstate/Chemicon 14-451
T3 sequence (O75116 11-552 limits assumed): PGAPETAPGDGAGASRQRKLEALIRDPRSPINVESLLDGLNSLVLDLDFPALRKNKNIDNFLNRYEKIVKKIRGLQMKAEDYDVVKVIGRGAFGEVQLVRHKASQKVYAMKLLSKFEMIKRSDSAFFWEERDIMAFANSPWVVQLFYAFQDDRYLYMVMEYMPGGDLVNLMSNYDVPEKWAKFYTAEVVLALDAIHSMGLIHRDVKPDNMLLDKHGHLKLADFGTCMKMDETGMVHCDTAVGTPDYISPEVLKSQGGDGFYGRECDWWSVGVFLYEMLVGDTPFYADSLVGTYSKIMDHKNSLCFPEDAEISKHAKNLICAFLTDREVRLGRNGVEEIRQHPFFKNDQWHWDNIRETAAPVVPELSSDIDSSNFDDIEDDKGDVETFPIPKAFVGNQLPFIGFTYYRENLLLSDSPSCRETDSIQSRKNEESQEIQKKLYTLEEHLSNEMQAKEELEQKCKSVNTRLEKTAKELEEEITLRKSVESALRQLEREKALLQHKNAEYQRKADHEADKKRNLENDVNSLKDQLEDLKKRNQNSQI
Protocol: (§1) Following the pre-incubation, 10 μM ATP was added to initiate the reaction. After 60 minutes at room temperature, Molecular Devices IMAP™ binding solution was added to bind phosphorylated substrate. After 30 minutes of incubation in the presence of the IMAP™ beads, the fluorescence polarization was read and the ratio was reported as mP. IC50 values for compounds and EC50 values for ATP were calculated using the Prism software from Graphpad.

[7] = Rat oral pharmacokinetics (plasma); format: in vivo; conditions: 20-30 μmol/kg; for half-life: mean n = 3, read-out: t½ (converted)
Protocol: Plasma (EDTA K2 anticoagulant) was collected from male, cannulated, CD Sprague Dawley rats to determine the pharmacokinetics of formulations containing compound inhibitors of Rho kinase. Each animal was dosed orally with a 4 ml/kg solution or suspension of each test compound in 10 mM acetate buffered saline, pH 4.5 at a final concentration range of 20-30 μmol/kg. Blood was collected at 0.25, 0.5, 1, 2, 4, 6, 8, and 24 hours. Plasma samples were assayed for the concentration of the test compound using an on-line, solid phase extraction LC/MS/MS analysis system.
Samples were analyzed on a QSTAR Elite, hybrid quadrupole time-of-flight mass spectrometer (Applied Biosystems, Framingham, Mass.) coupled with a Symbiosis Pharma integrated, on-line SPE-HPLC system (Spark Holland Inc., Plainsboro, N.J.). Analyst QS 2.0 software was used for instrument control, data acquisition and processing. […] Mobile Phase A consisted of 0.1% ammonium hydroxide in water and Mobile Phase B consisted of 0.1% formic acid in acetonitrile. Pharmacokinetic analyses were performed using WinNonlin software version 5.2 (Pharsight Corporation, Mountain View, Calif.).
As determined from the plasma concentration versus time curves, the time to peak and peak exposure are represented by the values Tmax and Cmax, respectively. The AUC values (nM*hr) shown were calculated as the areas under the plasma concentration versus time curves from time zero through the time of the last observable value and represent the total exposure of the compound over the course of the study. Half-life values or the amount of time required for the plasma levels of the compound to decline to half the initial value are represented as t½.

[8] = biological target: T4, ROCK1 (Homo sapiens, UniProt Q13464); assay: Rho kinase inhibition assay (IMAP fluorescence polarization), ROCK1; format: biochemical;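 note: kinase reaction run 60 min at room temperature, then phosphorylated substrate captured on IMAP beads for 30 min, with fluorescence polarization read in mP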
T4 construct: purchased Upstate/Chemicon 14-601
T4 sequence (Q13464 17-535 limits assumed): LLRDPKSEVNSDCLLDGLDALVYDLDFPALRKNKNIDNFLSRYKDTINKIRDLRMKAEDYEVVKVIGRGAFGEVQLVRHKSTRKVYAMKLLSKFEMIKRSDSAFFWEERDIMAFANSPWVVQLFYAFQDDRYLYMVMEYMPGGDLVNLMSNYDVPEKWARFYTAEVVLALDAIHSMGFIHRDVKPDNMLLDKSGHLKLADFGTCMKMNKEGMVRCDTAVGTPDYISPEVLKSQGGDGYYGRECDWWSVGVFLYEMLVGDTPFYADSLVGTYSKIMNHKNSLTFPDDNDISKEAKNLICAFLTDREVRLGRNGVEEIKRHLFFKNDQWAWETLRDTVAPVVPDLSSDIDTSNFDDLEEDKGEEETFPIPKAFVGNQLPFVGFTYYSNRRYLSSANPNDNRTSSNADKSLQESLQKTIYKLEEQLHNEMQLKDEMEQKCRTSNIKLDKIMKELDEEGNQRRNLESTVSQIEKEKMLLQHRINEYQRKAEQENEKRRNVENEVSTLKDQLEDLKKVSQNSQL
Protocol: as §1

[9] = test system: A-10 rat thoracic aorta cells; assay: PDGF-stimulated smooth muscle cell proliferation assay (BrdU incorporation); format: cell-based; conditions: A-10 cells, 10 ng/mL PDGF, BrdU incorporation, percent of total challenge-stimulated proliferation; for Percent of PDGF Induced Proliferation at 1 μM Avg: 1 μM test compound; for Percent of PDGF Induced Proliferation at 10 μM Avg: 10 μM test compound;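 for all read-outs here: cells kept in serum-free medium, BrdU allowed to incorporate for 24 h, then incorporated label detected fluorometrically with an anti-BrdU antibody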
[10] = Neutrophil, 1 h, 1 μM fMLP challenge, one hour, read-out: Chemotaxis Avg. IC50
[11] = average IC50 for inhibition of fMLP-induced neutrophil chemotaxis, read-out: Chemotaxis IC50
[12] = 30 μM ATP, Ki=IC50/(1+([ATP Challenge]/EC50 ATP)), read-out: p70S6K Ki, Avg
[13] = average Ki, read-out: p70S6K Ki
[14] = 30 μM ATP, Ki=IC50/(1+([ATP Challenge]/EC50 ATP)), read-out: Akt3 Ki, Avg
[15] = 10 μM ATP, read-out: ROCK2 Ki, Avg
[16] = male, CD Sprague Dawley, mean n = 3
[17] = male, CD Sprague Dawley, mean n = 3, read-out: Cmax
[18] = male, CD Sprague Dawley, mean n = 3, read-out: Tmax

| Structure (SMILES) | Cell score at 1 μM [1] | IC50 [2, 10] [nM] | IC50 [2, 11] [nM] | Ki [3, 12] [nM] | Ki [3, 13] [nM] | Ki [4, 14] [nM] | Ki ([4]; average Ki, read-out: Akt3 Ki) [nM] | concentration at 15 min [5] [nM] | Ki [6, 15] [nM] | Ki ([6]; average Ki, read-out: ROCK2 Ki) [nM] | Ki ([8]; Avg, 10 μM ATP) [nM] | Ki ([8]; average Ki) [nM] | also measured |
| --- | --- | --- | --- | --- | --- | --- | --- | --- | --- | --- | --- | --- | --- |
| CS(=O)(=O)c1ccc(CN2CCC(Nc3ccc4[nH]ncc4c3)C2)cc1 (stereo not drawn) [Compound 1.004, N-(1-(4-(methylsulfonyl)benzyl)pyrrolidin-3-yl)-1H-indazol-5-amine] | 1.8 |  |  |  |  |  |  |  |  |  |  |  |  |
| Cc1ccc(CN2CCCC(Nc3ccc4[nH]ncc4c3)C2)c(C)c1 (stereo not drawn) [Compound 1.024, N-(1-(2,4-dimethylbenzyl)piperidin-3-yl)-1H-indazol-5-amine] | 2.4 |  |  |  |  |  |  |  |  |  |  |  |  |
| OCc1ccc(CN2CCCC(Nc3ccc4[nH]ncc4c3)C2)cc1 (stereo not drawn) [Compound 1.025, (4-((3-(1H-indazol-5-ylamino)piperidin-1-yl)methyl)phenyl)methanol] | 2 |  |  |  |  |  |  |  |  |  |  |  |  |
| CS(=O)(=O)Cc1cccc(CN2CCCC(Nc3ccc4[nH]ncc4c3)C2)c1 (stereo not drawn) [Compound 1.041, N-(1-(3-(methylsulfonylmethyl)benzyl)piperidin-3-yl)-1H-indazol-5-amine] | 2.5 |  |  |  |  |  |  |  |  |  |  |  |  |
| Oc1cccc(CN2CCCC(Nc3ccc4[nH]ncc4c3)C2)c1 (stereo not drawn) [Compound 1.046, 3-((3-(1H-indazol-5-ylamino)piperidin-1-yl)methyl)phenol] | 2.5 |  |  |  |  |  |  |  |  |  |  |  |  |
| CS(=O)(=O)c1cccc(CN2CCCC(Nc3ccc4[nH]ncc4c3)C2)c1 (stereo not drawn) [Compound 1.048, N-(1-(3-(methylsulfonyl)benzyl)piperidin-3-yl)-1H-indazol-5-amine] | 1.5 |  |  |  |  |  |  |  |  |  |  |  |  |
| c1cc2cc(CN3CCCC(Nc4ccc5[nH]ncc5c4)C3)ccc2o1 (stereo not drawn) [Compound 1.052, N-(1-(benzofuran-5-ylmethyl)piperidin-3-yl)-1H-indazol-5-amine] | 2.8 |  |  |  |  |  |  |  |  |  |  |  |  |
| Clc1ccc(CN2CCC(Nc3ccc4[nH]ncc4c3)C2)cc1Cl (stereo not drawn) [Compound 1.062, N-(1-(3,4-dichlorobenzyl)pyrrolidin-3-yl)-1H-indazol-5-amine] | 2.3 |  |  |  |  |  |  |  |  |  |  |  |  |
| Cc1cccc(CN2CCCC(Nc3ccc4[nH]ncc4c3)C2)c1 (stereo not drawn) [Compound 1.066, N-(1-(3-methylbenzyl)piperidin-3-yl)-1H-indazol-5-amine] | 2 |  |  |  |  |  |  |  |  |  |  |  |  |
| CCS(=O)(=O)Nc1cccc(CN2CCC[C@@H](Nc3ccc4[nH]ncc4c3)C2)c1 [Compound 1.123, (R)-N-(3-((3-(1H-indazol-5-ylamino)piperidin-1-yl)methyl)phenyl)ethanesulfonamide] |  | 3050 | 3100 | 2810 | 2810 | 2410 | 2410 | 71 | 9.6 | 9.6 | 82.3 | 82.3 | Vz_F ([7]; mean n = 3): 14.8 L/kg; AUC(0-t) [7, 16]: 2.06 µM·h; Cmax [7, 17]: 2040 nM; Tmax [7, 18]: 19.8 min; half-life ([7]; male, CD Sprague Dawley): 54 min |
| CCS(=O)(=O)Nc1cccc(CN2CCC[C@H](Nc3ccc4[nH]ncc4c3)C2)c1 [Compound 1.124, (S)-N-(3-((3-(1H-indazol-5-ylamino)piperidin-1-yl)methyl)phenyl)ethanesulfonamide] |  | 3400 | 3400 | 3330 | 3330 | 7870 | 7870 | 118 | 3.3 | 3.3 | 64.5 | 64.5 | Percent of PDGF Induced Proliferation at 1 μM Avg [9]: 68.5%; Percent of PDGF Induced Proliferation at 10 μM Avg [9]: 61.6%; Vz_F ([7]; mean n = 3): 93.4 L/kg; AUC(0-t) [7, 16]: 0.535 µM·h; Cmax [7, 17]: 415 nM; Tmax [7, 18]: 30 min; half-life ([7]; male, CD Sprague Dawley): 83.4 min |
| CCc1ccc(CN2CCC[C@@H](Nc3ccc4[nH]ncc4c3)C2)cc1 [Compound 1.136, (R)-N-(1-(4-ethylbenzyl)piperidin-3-yl)-1H-indazol-5-amine] |  | 2600 | 2600 | 1240 | 1240 | 290 | 290 |  | 5.4 | 5.1 | 40.3 | 25.8 | AUC (0-last) ([7]; mean n = 3): BLQ; Cmax ([7]; mean n = 3): BLQ; Tmax ([7]; mean n = 3): BLQ; Vz_F ([7]; mean n = 3): BLQ; t½ ([7]; mean n = 3): BLQ |
| c1cc2cc(CN3CCC[C@@H](Nc4ccc5[nH]ncc5c4)C3)ccc2s1 [Compound 1.138, (R)-N-(1-(benzo[b]thiophen-5-ylmethyl)piperidin-3-yl)-1H-indazol-5-amine] |  | 1850 | 1900 | 444 | 444 | 91.3 | 91.3 | 1860 | 7.2 | 6.3 | 36.3 | 41.1 | Percent of PDGF Induced Proliferation at 1 μM Avg [9]: 46.3%; Percent of PDGF Induced Proliferation at 10 μM Avg [9]: 27.0% |
| c1ccc(CN2CCC(Nc3cccc4cnccc34)C2)cc1 (stereo not drawn) [Compound 2.006, N-(1-benzylpyrrolidin-3-yl)isoguinolin-5-amine] | 2.8 |  |  |  |  |  |  |  |  |  |  |  |  |
| COc1ccc(CN2CCC(Nc3cccc4cnccc34)C2)cc1 (stereo not drawn) [Compound 2.017, N-(1-(4-methoxybenzyl)pyrrolidin-3-yl)isoquinolin-5-amine] | 2 |  |  |  |  |  |  |  |  |  |  |  |  |
| Cc1ccc(CN2CC[C@@H](Nc3cccc4cnccc34)C2)cc1 [Compound 2.025, (R)-N-(1-(4-methylbenzyl)pyrrolidin-3-yl)isoquinolin-5-amine] |  | 1650 | 1700 | 499 | 499 | 966 | 966 | 74 | 2.9 | 2.9 | 6.9 | 6.9 | Percent of PDGF Induced Proliferation at 1 μM Avg [9]: 69.8%; Percent of PDGF Induced Proliferation at 10 μM Avg [9]: 68.0% |
| CSc1ccc(CN2CC[C@@H](Nc3cccc4cnccc34)C2)cc1 [Compound 2.026, (R)-N-(1-(4-(methylthio)benzyl)pyrrolidin-3-yl)isoquinolin-5-amine] |  |  |  | 536 | 536 | 2080 | 2080 | 629 | 13 | 13 | 38 | 38 | IC50 ([2]; Neutrophil, 1 h, read-out: Chemotaxis Avg. IC50): 3800 nM; IC50 ([2]; Neutrophil, read-out: Chemotaxis IC50): 3800 nM; Percent of PDGF Induced Proliferation at 1 μM Avg [9]: 74.5%; Percent of PDGF Induced Proliferation at 10 μM Avg [9]: 52.0%; AUC (0-last) ([7]; mean n = 3): BLQ; Cmax ([7]; mean n = 3): BLQ; Tmax ([7]; mean n = 3): BLQ; Vz_F ([7]; mean n = 3): BLQ; t½ ([7]; mean n = 3): BLQ |
| CS(=O)(=O)Nc1cccc(CN2CC[C@H](Nc3cccc4cnccc34)C2)c1 [Compound 2.035, (S)-N-(3-((3-(isoquinolin-5-ylamino)pyrrolidin-1-yl)methyl)phenyl)methanesulfonamide] |  | 6600 |  |  |  |  |  |  | 202 |  | 601 |  |  |
| OCCOc1cccc(CN2CCC[C@H](Nc3cccc4cnccc34)C2)c1 [Compound 2.036, (S)-2-(3-((3-(isoquinolin-5-ylamino)piperidin-1-yl)methyl)phenoxy)ethanol] |  | 2770 |  |  |  |  |  |  | 233 |  | 579 |  |  |
| OCCOc1cccc(CN2CC[C@@H](Nc3cccc4cnccc34)C2)c1 [Compound 2.039, (R)-2-(3-((3-(isoquinolin-5-ylamino)pyrrolidin-1-yl)methyl)phenoxy)ethanol] |  | 1640 | 1600 | 1010 | 1010 | 1990 | 1990 | 92 | 6.7 | 6.7 | 18.8 | 18.8 | Vz_F ([7]; mean n = 3): 59.4 L/kg; AUC(0-t) [7, 16]: 0.905 µM·h; Cmax [7, 17]: 783 nM; Tmax [7, 18]: 19.8 min; half-life ([7]; male, CD Sprague Dawley): 67.8 min |
